The results in this text go back to patent publication US20150191469A1, “COMPOUNDS AND METHODS FOR TREATING HIV” (priority 2012, published 2015).

The test deals with HIV. In words: MT4 assay: antiviral HIV activity (cell protection, cell titer glo readout at 96 hours). The format is cell-based. Particulars: Human immunodeficiency virus 1, MT4, 96 h, MT4 cells, cell titer glo readout at 96 hours, 10 point dose response; read-out: HIV MT4 Assay IC50. The method, then:
Antiviral HIV activity and cytotoxicity values for compounds of the invention from Table 1 were measured in parallel in the HTLV-1 transformed cell line MT-4 based on the method previously described (Hazen et al., 2007, In vitro antiviral activity of the novel, tyrosyl-based human immunodeficiency virus (HIV) type 1 protease inhibitor brecanavir (GW640385) in combination with other antiretrovirals and against a panel of protease inhibitor-resistant HIV (Hazen et al., “In vitro antiviral activity of the novel, tyrosyl-based human immunodeficiency virus (HIV) type 1 protease inhibitor brecanavir (GW640385) in combination with other antiretrovirals and against a panel of protease inhibitor-resistant HIV”, Antimicrob. Agents Chemother. 2007, 51: 3147-3154; and Pauwels et al., “Sensitive and rapid assay on MT-4 cells for the detection of antiviral compounds against the AIDS virus”, J. of Virological Methods 1987, 16: 171-185).
Luciferase activity was measured 96 hours later by adding a cell titer glo (Promega, Madison, Wis.). Percent inhibition of cell protection data was plotted relative to no compound control. Under the same condition, cytotoxicity of the compounds was determined using cell titer Glo™ (Promega, Madison, Wis.). IC50s were determined from a 10 point dose response curve using 3-4-fold serial dilution for each compound, which spans a concentration range >1000 fold.
These values are plotted against the molar compound concentrations using the standard four parameter logistic equation:
y=((Vmax*x̂n)/(K̂n+x̂n))+Y2
Y2=minimum y n=slope factor
Vmax=maximum y x=compound concentration [M]

Molecules are shown by their SMILES.

Usually IC50 stands for the point on the concentration scale where inhibition reaches its midpoint. Regarding `Cc1nc2c(cc(-c3ccnc(N4CCN(c5ccccc5)CC4)c3)n2C)c(-c2cc(F)c3c(c2C)CCCO3)c1[C@H](OC(C)(C)C)C(=O)O` (atropisomer, axis not shown) [Example 83], the IC50 amounted to 52.5 nM. In the case of `Cc1nc2c(cc(C(=O)N3CCN(C(=O)C4CCCCC4)CC3)n2C)c(-c2cc(F)c3c(c2C)CCCO3)c1[C@H](OC(C)(C)C)C(=O)O` [Example 201] it was 65.7 nM; in that of `Cc1nc2c(cc(-c3ccnc(-c4ccc5c(cnn5C)c4)c3)n2C)c(-c2ccccc2)c1[C@H](OC(C)(C)C)C(=O)O` [Example 424], 46.4 nM. In the case of `Cc1nc2c(cc(-c3ccnc(-c4cnc(N5CCN(C)CC5)nc4)c3)n2C)c(-c2cc(F)c3c(c2C)CCCO3)c1[C@H](OC(C)(C)C)C(=O)O` (atropisomer, axis not shown) [Example 70], the half-inhibitory concentration (IC50) worked out at 3.1 nM. Regarding `Cc1nc2c(cc(C(=S)N3CCC(c4ccccc4)CC3)n2C)c(-c2cc(F)c3c(c2C)CCCO3)c1[C@H](OC(C)(C)C)C(=O)O` (atropisomer, axis not shown; (M)) [Example 281, (2S)(M)-2-(tert-butoxy)-2-(-4-(8-fluoro-5-methylchroman-6-yl)-1,6-dimethyl-2-(4-phenylpiperidine-1-carbonothioyl)-1H-pyrrolo[2,3-b]pyridin-5-yl)acetic acid], the IC50 is 38.3 nM.

`Cc1nc2c(cc(-c3ccnc(-c4ccnc(N5CCN(C)CC5)c4)c3)n2C)c(-c2cc(F)c3c(c2C)CCCO3)c1[C@H](OC(C)(C)C)C(=O)O` (atropisomer, axis not shown) [Example 30]: the IC50 was determined as 4.1 nM.

As to `Cc1nc2c(cc(-c3cc(-c4ccc5c(cnn5C)c4)ccn3)n2C)c(-c2cc(F)c3c(c2C)CCCO3)c1[C@H](OC(C)(C)C)C(=O)O` [Example 139], the concentration for half-maximal inhibition (IC50) came out at 2 nM. With `Cc1nc2c(cc(-c3nnc(N4CCC(N5CCOCC5)CC4)o3)n2C)c(-c2cc(F)c3c(c2C)CCCO3)c1[C@H](OC(C)(C)C)C(=O)O` [Example 318], the IC50 came to 14.2 nM. For the compound `Cc1ccc(-c2c([C@H](OC(C)(C)C)C(=O)O)c(C)nc3c2cc(-c2ccnc(-c4ccc5c(cnn5C)c4)c2)n3C)cc1` [Example 421], the IC50 was 7.6 nM.

On to `Cc1nc2c(cc(-c3ccnc(C(=O)NC4CCCCC4)c3)n2C)c(-c2cc(F)c3c(c2C)CCCO3)c1[C@H](OC(C)(C)C)C(=O)O` (atropisomer, axis not shown) [Example 152], for which the IC50 came to 72.4 nM. Take `Cc1nc2c(cc(-c3nnc(N4CCOC[C@H]4C)o3)n2C)c(-c2cc(F)c3c(c2C)CCCO3)c1[C@H](OC(C)(C)C)C(=O)O` [Example 334]: the half-inhibitory concentration (IC50) worked out at 10.4 nM. As to `Cc1nc2c(cc(-c3nnc(N4CCN(C5CCOCC5)CC4)o3)n2C)c(-c2cc(F)c3c(c2C)CCCO3)c1[C@H](OC(C)(C)C)C(=O)O` (atropisomer, axis not shown; (M)) [Example 300, (2S)(M)-2-(tert-butoxy)-2-(-4-(8-fluoro-5-methylchroman-6-yl)-1,6-dimethyl-2-(5-(4-(tetrahydro-2H-pyran-4-yl)piperazin-1-yl)-1,3,4-oxadiazol-2-yl)-1H-pyrrolo[2,3-b]pyridin-5-yl)acetic acid], the IC50 came out at 10.4 nM. `Cc1nc2c(cc(C(=O)N(C)C3CCCCC3)n2C)c(-c2cc(F)c3c(c2C)CCCO3)c1[C@H](OC(C)(C)C)C(=O)O` [Example 256]: the IC50 was 34.5 nM.

For `Cc1nc2c(cc(C(=O)N3CCCCC3)n2C)c(-c2cc(F)c3c(c2C)CCCO3)c1[C@H](OC(C)(C)C)C(=O)O` [Example 251], the IC50 turned out to be 28.3 nM. On to `Cc1nc2c(cc(-c3ccnc(N4CCN(c5ccccn5)CC4)c3)n2C)c(-c2cc(F)c3c(c2C)CCCO3)c1[C@H](OC(C)(C)C)C(=O)O` (atropisomer, axis not shown) [Example 90], for which the IC50 worked out at 13.3 nM. As for `Cc1nc2c(cc(-c3nnc(N4CCCN(C)CC4)o3)n2C)c(-c2cc(F)c3c(c2C)CCCO3)c1[C@H](OC(C)(C)C)C(=O)O` [Example 306], the IC50 stood at 51.8 nM. For the compound `Cc1nc2c(cc(C(=O)NC[C@@H](C)c3ccccc3)n2C)c(-c2cc(F)c3c(c2C)CCCO3)c1[C@H](OC(C)(C)C)C(=O)O` [Example 215], the IC50 was determined as 30 nM. `Cc1nc2c(cc(C(=O)NCc3c(F)cccc3F)n2C)c(-c2cc(F)c3c(c2C)CCCO3)c1[C@H](OC(C)(C)C)C(=O)O` [Example 254]: the IC50 is 3.8 nM. `Cc1nc2c(cc(C(=O)N3CCN(CC(=O)N4CCOCC4)CC3)n2C)c(-c2cc(F)c3c(c2C)CCCO3)c1[C@H](OC(C)(C)C)C(=O)O` [Example 204]: the IC50 was found to be 11400 nM. On to `Cc1nc2c(cc(-c3nc(N4CCC(N5CCCCC5)CC4)ns3)n2C)c(-c2cc(F)c3c(c2C)CCCO3)c1[C@H](OC(C)(C)C)C(=O)O` [Example 387], for which the IC50 is 6.9 nM.

Turning to `Cc1nc2c(cc(-c3ccnc(N4CCC(Oc5ccccc5)C4)c3)n2C)c(-c2cc(F)c3c(c2C)CCCO3)c1[C@H](OC(C)(C)C)C(=O)O` (stereo partly shown) [Example 107], the IC50 amounted to 44.5 nM. Consider `Cc1nc2c(cc(-c3ccnc(C#CCN4CCOCC4)c3)n2C)c(-c2cc(F)c3c(c2C)CCCO3)c1[C@H](OC(C)(C)C)C(=O)O` (atropisomer, axis not shown) [Example 158], for which the half-inhibitory concentration (IC50) stood at 45 nM.

On to `Cc1nc2c(cc(-c3ccnc(C(=O)Nc4ccn(C)n4)c3)n2C)c(-c2cc(F)c3c(c2C)CCCO3)c1[C@H](OC(C)(C)C)C(=O)O` (atropisomer, axis not shown) [Example 153], for which the IC50 came to 44 nM. Regarding `COc1ccccc1[C@H]1[C@@H]2CN(c3cc(-c4cc5c(-c6cc(F)c7c(c6C)CCCO7)c([C@H](OC(C)(C)C)C(=O)O)c(C)nc5n4C)ccn3)C[C@@H]21` (atropisomer, axis not shown) [Example 109], the IC50 was 121 nM. As to `Cc1nc2c(cc(-c3nnc(N4CCOCC4)o3)n2C)c(-c2cc(F)c3c(c2C)CCCO3)c1[C@H](OC(C)(C)C)C(=O)O` [Example 310], the IC50 was 15.4 nM. Consider `Cc1nc2c(cc(-c3ccnc(N4CCC(C)CC4)c3)n2C)c(-c2cc(F)c3c(c2C)CCCO3)c1[C@H](OC(C)(C)C)C(=O)O` (atropisomer, axis not shown) [Example 80], for which the 50% inhibitory concentration (IC50) turned out to be 21.3 nM. Consider `Cc1nc2c(cc(-c3nnc(N4CCC(N5CCS(=O)(=O)CC5)CC4)o3)n2C)c(-c2cc(F)c3c(c2C)CCCO3)c1[C@H](OC(C)(C)C)C(=O)O` [Example 320], for which the IC50 came out at 380 nM. To `Cc1nc2c(cc(C(=O)NCC3CC3)n2C)c(-c2cc(F)c3c(c2C)CCCO3)c1[C@H](OC(C)(C)C)C(=O)O` [Example 229] belongs 12.2 nM; to `Cc1nc2c(cc(CCC(=O)N(C)c3ccc4c(cnn4C)c3)n2C)c(-c2cc(F)c3c(c2C)CCCO3)c1[C@H](OC(C)(C)C)C(=O)O` [Example 299], 39.3 nM.

For the compound `Cc1nc2c(cc3n2CCCC3)c(-c2cc(F)c3c(c2C)CCCO3)c1[C@H](OC(C)(C)C)C(=O)O` (atropisomer, axis not shown; (M)) [Example 29, (2S)(M)-2-(tert-butoxy)-2-(4-(8-fluoro-5-methylchroman-6-yl)-2-methyl-6,7,8,9-tetrahydropyrido[3,2-b]indolizin-3-yl)acetic acid], the IC50 stood at 13.8 nM. To `Cc1nc2c(cc(-c3ccnc(N4C[C@@H]5CC[C@H]4CN(C4COC4)C5)c3)n2C)c(-c2cc(F)c3c(c2C)CCCO3)c1[C@H](OC(C)(C)C)C(=O)O` (atropisomer, axis not shown) [Example 122] belongs 11.6 nM; to `COCCN1CCCN(c2cc(-c3cc4c(-c5cc(F)c6c(c5C)CCCO6)c([C@H](OC(C)(C)C)C(=O)O)c(C)nc4n3C)ccn2)CC1` (atropisomer, axis not shown) [Example 103], 45 nM; to `Cc1nc2c(cc(-c3nsc(N4CCN(C5CCOCC5)CC4)n3)n2C)c(-c2cc(F)c3c(c2C)CCCO3)c1[C@H](OC(C)(C)C)C(=O)O` [Example 375], 1.5 nM.

Turning to `Cc1nc2c(cc(-c3ccnc(N4CCCNCC4)c3)n2C)c(-c2cc(F)c3c(c2C)CCCO3)c1[C@H](OC(C)(C)C)C(=O)O` (atropisomer, axis not shown) [Example 96], the IC50 stood at 350 nM. For the compound `Cc1nc2c(cc(-c3nnc(N4CCC(n5cccn5)CC4)o3)n2C)c(-c2cc(F)c3c(c2C)CCCO3)c1[C@H](OC(C)(C)C)C(=O)O` [Example 327], the IC50 was 9.4 nM. As to `Cc1nc2c(cc(C(=O)NCCN3CCCC3)n2C)c(-c2cc(F)c3c(c2C)CCCO3)c1[C@H](OC(C)(C)C)C(=O)O` [Example 275], the IC50 came out at 1000 nM. As for `Cc1nc2c(cc(C(=O)N3CCN(CC(=O)N4CCCC4)CC3)n2C)c(-c2cc(F)c3c(c2C)CCCO3)c1[C@H](OC(C)(C)C)C(=O)O` [Example 203], the IC50 was determined as 6040 nM. To `Cc1nc2c(cc(-c3cncc(-c4ccc5c(cnn5C)c4)c3)n2C)c(-c2cc(F)c3c(c2C)CCCO3)c1[C@H](OC(C)(C)C)C(=O)O` [Example 138] belongs 1.5 nM; to `Cc1ccc(-c2cc(-c3cc4c(-c5cc(F)c6c(c5C)CCCO6)c([C@H](OC(C)(C)C)C(=O)O)c(C)nc4n3C)ccn2)cc1` (atropisomer, axis not shown) [Example 31], 11 nM. As for `Cc1nc2c(cc(-c3ccnc(CNc4ncc(F)cn4)c3)n2C)c(-c2cc(F)c3c(c2C)CCCO3)c1[C@H](OC(C)(C)C)C(=O)O` [Example 74], the IC50 was 56.5 nM.
